How the values were obtained:
[1] = test system: 12-week HFHS fed obese mice; assay: I.C.V. fluorosamine in obese mice: glucose tolerance and hyperinsulinemic-euglycemic clamps; assay type: in vivo, C57BL/6J mice
Method: For hyperinsulinemic-euglycemic clamps, mice were anesthetised under isoflurane and the right jugular vein was catheterised for infusions, as described previously by Dodd et al., 2018. Catheters were attached to an implant button (BMSW25, RWD Life Sciences, Shenzhen, China). Implant buttons were capped allowing for group mousing of mice and catheters were kept patent by flushing daily with 40 μL saline containing 200 units/mL heparin. On the day of the experiment, food was removed at 7:00 A.M. After 3.5 h fasting, a primed (1 min, 1.25 uCi/min) continuous infusion (0.05 uCi/min) of [3-3H]glucose (NET331A001MC, PerkinElmer, MA) was administered to measure whole-body glucose turnover, as described previously by Dodd et al., 2018. […]
Metabolic measurements were undertaken in the Melbourne Mouse Metabolic Phenotyping Platform (The University of Melbourne, Australia). […] The areas under glucose excursion curves were determined and expressed as mmol/l×min. Fasted (12 h fast) plasma insulin or glucose levels were determined using a Rat/Mouse Insulin ELISA (EZRMI-13K, Merck Millipore, CA) or an Accu-Check glucometer respectively. The HOMA-IR was calculated using the equation [(glucose×insulin)/405]. Adiposity was measured using TD-NMR minispec (Bruker Optics Inc., Billerica, MA). […]

[2] = test system: 12-week HFHS fed obese mice; assay: Example 21: glycaemic control in treatment and off-treatment phase (GTT, ITT, fasting glucose); assay type: in vivo, C57BL/6J male mice; conditions: treatment phase
Text: Under 2-5% (v/v) isoflurane in 1 L/min oxygen, 12-week-HFHS-diet-fed and aged-matched chow-fed C57BL/6J male mice were implanted stereotaxically with guide cannulas in the right lateral ventricle (measurement of the coordinates were described as Chapter 2; Anterior/Posterior: −1.00 mm, Medial/Lateral: +0.20 mm). Guide cannulas were made by polishing the shaft of hypodermic needles (19 Gauge, Livingstone, Australia) to 1.00 mm long. The tip of the guide cannula was positioned 1.00 mm above the target region (1.00 mm ventral to the surface of the mouse skull). The mice were allowed 2-3 days for recovery before further experimental manipulations.
Awake 12-week-HFHS-diet-fed and aged-matched chow-fed C57BL/6J male mice were restrained by scruffing and inverted in the head-down position. […]
Glucose tolerance test was conducted on 6-hrs fasted conscious mice by injecting D-glucose (2 mg/g of lean body mass) into the peritoneal cavity and measuring blood glucose levels by taking tail blood immediately at 0, 15, 30, 60, 90 and 120 mins after injection using an Accu-Check glucometer (Roche, Germany). The area under the glucose excursion curve was determined and represented as mmol/L×min. Fasted (24 hr fast) glucose level was measured using an Accu-Check glucometer. […]

[3] = test system: CSPG-ECM (neurofibrosis); assay: I.C.V. fluorosamine in obese mice: CSPG-ECM expression (WFA immunostaining); assay type: in vivo, C57BL/6J mice
Method: All image quantification was performed in Image J (NIH) software (NIH, MA). Raw images underwent background subtraction using a rolling ball algorithm to minimize background and any potential variance in tissue autofluorescence. To quantify area and intensity of the CSPG-ECM within each brain region (ARC, VMH or RSG cortex) images were thresholded and binarized to create a region of interest (ROI) mask of only the CSPG-ECM. For each brain area, CSPG-ECM ROI area (μm^2) and intensity (sum of all pixel intensities within the ROI) was calculated. This process was automated to minimise bias and to account for differences in brain nuclei size across multiple images. Brain nuclei were defined in accordance with the Paxinos and Franklin mouse brain atlas (http://labs.gaidi.ca/mouse-brain-atlas/). The area and intensity of CSPG-ECM within each region was normalised to the respective control.
Under isoflurane anaesthetic 12-week HFHS fed C57BL/6J or AgRP-Cas9 mice were implanted stereotaxically with guide cannulas into the right lateral ventricle (0.2 mm posterior, 1.0 mm lateral from bregma). Guide cannula was positioned 1.3 mm above the injection site (1 mm ventral to the surface of the skull). AgRP-Cas9 mice were treated with either AAV-gScrambled or AAV-gIR and underwent guide cannula placement 7 days post AAV administration. Mice were administered I.C.V. vehicle (ddH2O), fluorosamine (100 μg/animal/day or 250 μgl/animal/day) in a volume of 2 μl/animal and all compounds were delivered approximately 1 h before lights off (7 pm).

[4] = test system: GLP-1 receptor signalling (pERK) in the ARC; assay: I.C.V. PZ6005 and/or S.C. liraglutide: ARC pERK +ve. cells after liraglutide; assay type: in vivo, C57BL/6j mice; conditions: after 28-day treatment; compared to controls and liraglutide alone

CC(=O)NC1C(OC(C)=O)OC(COC(C)=O)[C@@H](F)C1OC(C)=O (stereo partly shown) [PZ6005, per-O-acetylated-4-F-N-acetylglucosamine]
whole-body insulin sensitivity (GIR) ([1]; hyperinsulinemic-euglycemic clamps, weight matched obese mice, daily for 3 days I.C.V.): enhancement
glucose tolerance ([1]; obese mice, I.C.V. for 10 days): improved glucose tolerance
glucose tolerance / glycaemic regulation [2]: improved glucose tolerance
CSPG-ECM expression in the habenula ([3]; I.C.V., at the highest dose): only partially attenuated
neurofibrosis within the ARC (WFA immunostaining) ([3]; obese mice, I.C.V. daily for 10 days): significantly attenuated
CSPG-ECM in other brain areas such as the RSG cortex ([3]; obese mice, I.C.V. for 10 days): did not reduce
ARC pERK +ve. cells [4]: markedly increased

Source: patent US20260191933A1, “PHARMACEUTICAL COMBINATIONS AND USES THEREOF” (The University of Melbourne, priority 2022, published 2026)
